# From PMC10998383, “Nitrophenylpiperazine derivatives as novel tyrosinase inhibitors: design, synthesis, and in silico evaluations” (BMC Chemistry, 2024)
# Entries after “also recorded” stand apart in the source; their conditions may differ. Like-named read-outs stand apart in the source and are kept apart here.
# How the values were obtained:
# mushroom tyrosinase [1] = biological target: T1, mushroom tyrosinase (Agaricus bisporus, UniProt C7FF04); conditions: cited from earlier work
# B16F10 cells = tested on: B16F10 cells; parameters: method as in PMID 30856375; conditions: cited from earlier work
# mushroom tyrosinase [2] = biological target: T1, mushroom tyrosinase; test: Mushroom tyrosinase inhibitory assay with L-dopa as substrate; assay type: biochemical; conditions: for inhibition at 100 µM: read-out: % Inhibition at 100 μM;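 as to all read-outs here: enzyme activity followed as absorbance change at 475 nm in phosphate buffer pH 6.8, monitored continuously, IC50 derived from percent inhibition dose–response curves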
# Experimental: The mushroom tyrosinase activity assays for the synthetic compounds were conducted using a modified procedure from a previous study. In summary, a 96-well microplate was utilized, and 160 μl of phosphate buffer (50 mM, pH 6.8), 10 μl of mushroom tyrosinase (500 U/ml, dissolved in PBS), and 10 μl of the test compound (dissolved in DMSO) were added to each well. Then, 20 μl of L-dopa (7 mM, dissolved in PBS) was added to initiate the enzymatic reaction. The change in absorbance at 475 nm was continuously monitored using a spectrophotometer. […] The IC50 value, representing the compound’s inhibitory potency, was determined from dose–response curves of percentage inhibition.
# mushroom tyrosinase [3] = biological target: T1, mushroom tyrosinase; test: Determination of the inhibition type (Lineweaver–Burk plot analysis)
# [4] = L-dopa substrate, ± SD, read-out: IC50 ± SD
# T1 sequence (C7FF04 1-392): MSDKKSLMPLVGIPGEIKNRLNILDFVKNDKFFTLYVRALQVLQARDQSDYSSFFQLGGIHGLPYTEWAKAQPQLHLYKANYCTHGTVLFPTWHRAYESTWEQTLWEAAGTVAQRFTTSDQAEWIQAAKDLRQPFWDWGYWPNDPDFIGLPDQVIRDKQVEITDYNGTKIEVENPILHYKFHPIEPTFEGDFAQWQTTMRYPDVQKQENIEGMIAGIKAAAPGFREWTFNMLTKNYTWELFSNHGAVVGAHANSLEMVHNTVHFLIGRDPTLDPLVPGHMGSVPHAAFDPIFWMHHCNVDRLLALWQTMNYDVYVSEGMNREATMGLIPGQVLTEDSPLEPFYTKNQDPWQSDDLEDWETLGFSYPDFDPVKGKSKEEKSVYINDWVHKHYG
Structure (SMILES),melting point,IC50 (mushroom tyrosinase [2]),"inhibition at 100 µM (mushroom tyrosinase [2]; 100 μM, L-dopa substrate, ± SD)",further results
CN1CCN(C(=O)/C=C/c2ccc(O)cc2O)CC1 [C],,,,% inhibition (mushroom tyrosinase [1]; at 25 μM): 94.39%; Cellular tyrosinase activity (B16F10 cells): dose-dependently inhibited; Melanin content (B16F10 cells): dose-dependently inhibited
"O=C(OCCN1CCN(c2ccc([N+](=O)[O-])cc2)CC1)c1ccccc1 [Compound 4a, 2-(4-(4-Nitrophenyl)piperazin-1-yl)ethyl benzoate]",176 to 178 °C,174.7 ± 0.68 µM,35.8 ± 3.24%,
"O=C(OCCN1CCN(c2ccc([N+](=O)[O-])cc2)CC1)c1ccccc1Br [Compound 4b, 2-(4-(4-Nitrophenyl)piperazin-1-yl)ethyl 2-bromobenzoate]",185 to 187 °C,> 200 µM,20.6 ± 2.58%,
"O=C(OCCN1CCN(c2ccc([N+](=O)[O-])cc2)CC1)c1ccc(Cl)cc1Cl [Compound 4c, 2-(4-(4-Nitrophenyl)piperazin-1-yl)ethyl 2,4-dichlorobenzoate]",196 to 198 °C,> 200 µM,27.9 ± 3.09%,
"O=C(OCCN1CCN(c2ccc([N+](=O)[O-])cc2)CC1)c1ccc([N+](=O)[O-])cc1 [Compound 4d, 2-(4-(4-Nitrophenyl)piperazin-1-yl)ethyl 4-nitrobenzoate]",172 to 174 °C,,28.3 ± 2.89%,IC50 (mushroom tyrosinase [2]; [4]): 203.2 ± 1.16 µM
"O=C(OCCN1CCN(c2ccc([N+](=O)[O-])cc2)CC1)c1cccc([N+](=O)[O-])c1 [Compound 4e, 2-(4-(4-Nitrophenyl)piperazin-1-yl)ethyl 3-nitrobenzoate]",181 to 183 °C,,24.9 ± 2.81%,IC50 (mushroom tyrosinase [2]; [4]): > 200 µM
"O=C(OCCN1CCN(c2ccc([N+](=O)[O-])cc2)CC1)c1ccc([N+](=O)[O-])cc1Cl [Compound 4f, 2-(4-(4-Nitrophenyl)piperazin-1-yl)ethyl 2-chloro-4-nitrobenzoate]",203 to 205 °C,,35.1 ± 2.25%,IC50 (mushroom tyrosinase [2]; [4]): > 200 µM
"COc1ccc(CC(=O)OCCN2CCN(c3ccc([N+](=O)[O-])cc3)CC2)cc1 [Compound 4g, 2-(4-(4-Nitrophenyl)piperazin-1-yl)ethyl 2-(4-methoxyphenyl)acetate]",207 to 209 °C,> 200 µM,30 ± 4.04%,
"COc1ccc(C=O)c(C(=O)OCCN2CCN(c3ccc([N+](=O)[O-])cc3)CC2)c1OC [Compound 4h, 2-(4-(4-Nitrophenyl)piperazin-1-yl)ethyl 6-formyl-2,3-dimethoxybenzoate]",176 to 178 °C,200.9 ± 1.32 µM,26.9 ± 3.55%,
"O=C(Cc1ccccc1)OCCN1CCN(c2ccc([N+](=O)[O-])cc2)CC1 [Compound 4i, 2-(4-(4-Nitrophenyl)piperazin-1-yl)ethyl 2-phenylacetate]",178 to 180 °C,184.2 ± 0.88 µM,,inhibition at 100 µM (mushroom tyrosinase [2]): 39.4 ± 4.18%
"O=C(C=Cc1ccccc1)OCCN1CCN(c2ccc([N+](=O)[O-])cc2)CC1 [Compound 4j, 2-(4-(4-Nitrophenyl)piperazin-1-yl)ethyl cinnamate]",185 to 187 °C,> 200 µM,23.1 ± 3.6%,
"O=C(OCCN1CCN(c2ccc([N+](=O)[O-])cc2)CC1)c1cccnc1 [Compound 4k, 2-(4-(4-Nitrophenyl)piperazin-1-yl)ethyl nicotinate]",168 to 170 °C,82.7 ± 1.16 µM,54.3 ± 4.58%,
"O=C(OCCN1CCN(c2ccc([N+](=O)[O-])cc2)CC1)c1cc2ccccc2[nH]1 [Compound 4l, 2-(4-(4-Nitrophenyl)piperazin-1-yl)ethyl 1H-indole-2-carboxylate]",192 to 194 °C,72.55 ± 0.49 µM,66.6 ± 4.12%,"Inhibition mode (mushroom tyrosinase [3]; Lineweaver–Burk plot, L-dopa substrate): mixed inhibitor; also recorded: mixed-type inhibition; Vmax (mushroom tyrosinase [3]; inhibitor concentration 10 µM): 65.79 mM/min; Vmax (mushroom tyrosinase [3]; inhibitor concentration 40 µM): 64.10 mM/min; Vmax (mushroom tyrosinase [3]; inhibitor concentration 100 µM): 62.89 mM/min"
"O=C(OCCN1CCN(c2ccc([N+](=O)[O-])cc2)CC1)c1ccc([N+](=O)[O-])o1 [Compound 4m, 2-(4-(4-Nitrophenyl)piperazin-1-yl)ethyl 5-nitrofuran-2-carboxylate]",,,43.7 ± 3.18%,IC50 (mushroom tyrosinase [2]; [4]): 175.3 ± 0.24 µM
COc1ccc(/C=C/C(=O)N2CCN(c3ccc(F)c(Cl)c3)CC2)cc1[N+](=O)[O-] [D],,,,IC50 (mushroom tyrosinase [1]): 0.51 µM
O=C(c1ccccc1C(F)(F)F)N1CCN(Cc2ccc(F)cc2)CC1 [E],,,,IC50 (mushroom tyrosinase [1]): 0.48 ± 0.05 µM
O=C(O)/C=C/c1ccc(O)c(O)c1 [caffeic acid],,,,Tyrosinase inhibitory potential (mushroom tyrosinase [1]): almost inactive
